Drawing on BindingDB's records for doi:10.1111/cbdd.12778 (Shandong University, 2016), this text covers IC50 for three compounds.

One assay addresses T1, Aminopeptidase N (Sus scrofa, UniProt P15145).
T1 sequence (P15145 whole entry): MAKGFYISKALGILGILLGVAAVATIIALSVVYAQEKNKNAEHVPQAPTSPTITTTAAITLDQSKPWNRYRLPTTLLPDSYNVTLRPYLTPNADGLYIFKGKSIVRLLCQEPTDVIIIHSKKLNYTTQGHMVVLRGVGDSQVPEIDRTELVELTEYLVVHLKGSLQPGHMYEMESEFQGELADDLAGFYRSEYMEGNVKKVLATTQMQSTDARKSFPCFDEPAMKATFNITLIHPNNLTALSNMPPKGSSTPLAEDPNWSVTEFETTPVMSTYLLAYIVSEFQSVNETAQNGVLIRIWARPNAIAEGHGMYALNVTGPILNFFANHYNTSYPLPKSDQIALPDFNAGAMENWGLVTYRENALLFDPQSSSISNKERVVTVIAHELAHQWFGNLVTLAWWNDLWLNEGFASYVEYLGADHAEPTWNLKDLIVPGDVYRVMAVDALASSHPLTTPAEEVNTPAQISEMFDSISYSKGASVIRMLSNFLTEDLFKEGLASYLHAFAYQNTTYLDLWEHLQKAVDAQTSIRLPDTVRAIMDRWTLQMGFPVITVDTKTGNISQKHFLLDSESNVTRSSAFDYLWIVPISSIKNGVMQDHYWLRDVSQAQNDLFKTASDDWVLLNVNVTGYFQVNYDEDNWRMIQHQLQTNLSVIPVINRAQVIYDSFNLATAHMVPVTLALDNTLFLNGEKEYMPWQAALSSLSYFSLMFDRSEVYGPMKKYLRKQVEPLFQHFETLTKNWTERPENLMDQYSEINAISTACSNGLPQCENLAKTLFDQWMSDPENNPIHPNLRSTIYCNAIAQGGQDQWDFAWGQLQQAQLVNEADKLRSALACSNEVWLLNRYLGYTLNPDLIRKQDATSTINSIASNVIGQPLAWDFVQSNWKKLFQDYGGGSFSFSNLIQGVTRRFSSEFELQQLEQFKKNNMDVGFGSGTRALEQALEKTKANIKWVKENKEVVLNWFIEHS
As to the kind of experiment: APN Inhibition Assay. The following applies: pH 7.2. On the procedure:
Briefly, the assay was performed in 96-well plates in […] PBS, pH 7.2 as the assay buffer, at 37 °C. The APN solution was mixed with compounds at various concentrations and incubated at 37 °C for 5 min. Subsequently, the substrate (l-leucine-p-nitroanilide) was added and the mixture was incubated for 30 min at 37°C.

The next assay concerns the target T2, Histone deacetylase 8 (Homo sapiens, UniProt Q9BY41).
T2 sequence (Q9BY41 whole entry): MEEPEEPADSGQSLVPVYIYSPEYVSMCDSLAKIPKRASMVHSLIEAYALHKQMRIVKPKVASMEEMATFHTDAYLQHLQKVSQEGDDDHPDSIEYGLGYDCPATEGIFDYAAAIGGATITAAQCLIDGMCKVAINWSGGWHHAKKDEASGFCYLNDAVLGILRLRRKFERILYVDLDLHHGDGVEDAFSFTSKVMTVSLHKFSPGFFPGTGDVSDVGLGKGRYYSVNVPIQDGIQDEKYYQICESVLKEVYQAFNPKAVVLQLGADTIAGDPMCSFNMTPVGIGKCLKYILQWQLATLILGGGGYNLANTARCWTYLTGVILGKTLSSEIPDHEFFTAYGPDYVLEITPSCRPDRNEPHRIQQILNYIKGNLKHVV
The assay is described as follows: In vitro HDAC8 Assay. How it is done: Briefly, the HDAC8 enzyme was diluted 20 times. Then, 10 μL of HDAC8 solution was mixed with compounds at various concentrations (50 μL). Then, 40 μL of the substrate [Boc-Lys-(acetyl)-AMC, 300 μm] was added, and the mixture was incubated at 37 °C for 30 min. Subsequently, the reaction was stopped by the addition of 100 μL of developer containing trypsin (10 μg/mL) and TSA (2 μm). Fluorescence intensity was measured by a microplate reader at excitation and emission wavelengths of 390 and 460 nm, respectively.

With `O=C(CCCCCCC(=O)Nc1ccccc1)NO` [Zolinza], at Aminopeptidase N, the IC50 is more than 100 µM.
For `CC1(C)CCC(C)(C)c2cc(NC(=O)c3ccc(C(=O)NO)cc3)ccc21` [N1-hydroxy-N4-(5,5,8,8-tetramethyl-5,6,7,8-tetrahydronaphthalen-2-yl)terephthalamide (7b)], the figures for the IC50 against Histone deacetylase 8 and at Aminopeptidase N were 4.3 µM and more than 100 µM, respectively.
Regarding `CC1(C)CCC(C)(C)c2cc(NC(=O)c3ccc(C(=O)O)cc3)ccc21` [4-[(5,5,8,8-tetramethyl-5,6,7,8-tetrahydronaphthalen-2-yl)carbamoyl]benzoic acid], the 50% inhibitory concentration (IC50) at Histone deacetylase 8 and against Aminopeptidase N was more than 100 µM each time.

For orientation: IC50 means the point on the concentration scale where inhibition reaches its midpoint. Low readings indicate greater potency, high ones weaker potency.
